Here are results for 15 molecules from PubChem BioAssay (NCI).

Among the test systems are SF-295 CNS; SK-MEL-28 melanoma; TK-10 renal; LOX IMVI melanoma; ACHN renal; 786-0 renal; HOP-62 NSCLC; RPMI-8226 leukemia; SF-268 CNS.
Experiment in all cases: inhibition of tumour cell growth, NCI panel, 48 h

Structures are written as SMILES.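 48-hour exposure; five concentrations; linearly interpolated endpoints. GI50: concentration for 50% inhibition of growth. At the TGI there is no net growth.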

Consider `CC(SC1=CC(=O)c2c(O)ccc(O)c2C1=O)C(=O)O` (centres undefined), for which the TGI is above 100 µM with SF-295 CNS; above 80.1 µM in the test with SK-MEL-28 melanoma; above 82.2 µM with TK-10 renal; above 57.7 µM in the test with LOX IMVI melanoma; above 64.1 µM in the test with ACHN renal; 56.8 µM with 786-0 renal. Also, the TGI with HOP-62 NSCLC was above 100 µM; with RPMI-8226 leukemia it was above 96.2 µM; with SF-268 CNS, above 75.1 µM.

For the molecule `CC1=C(N2CC2)C(=O)c2nc3n(c2C1=O)CCC3O` (centres undefined), the TGI stood at 0.512 µM in the test on SF-295 CNS; 0.872 µM in the test with SK-MEL-28 melanoma; 0.285 µM in the test with TK-10 renal; 1.92 µM in the test with LOX IMVI melanoma; 1.61 µM in the test on ACHN renal; 0.967 µM in the test on 786-0 renal. Further, the TGI is 0.516 µM in the test on HOP-62 NSCLC, 10.2 µM in the test on RPMI-8226 leukemia and 0.629 µM in the test with SF-268 CNS.

Regarding `CC1=C2N3C[C@@H](n4c(=O)n(C)c(=O)n43)C23CCC1n1c(=O)n(C)c(=O)n13`, the TGI in the test on SF-295 CNS, with SK-MEL-28 melanoma, in the test on TK-10 renal, in the test with LOX IMVI melanoma, in the test on ACHN renal and in the test on 786-0 renal was above 100 µM each time. Moreover, the TGI with HOP-62 NSCLC, with RPMI-8226 leukemia and with SF-268 CNS was above 100 µM in each case.

For the molecule `CCCCCCCCCCCCC(SCCNC(=O)CCNC(=O)C(O)C(C)(C)COP(=O)(O)OP(=O)(O)OCC1OC(n2cnc3c(N)ncnc32)C(O)C1OP(=O)(O)O)C(=O)NCC(N)=O` (centres undefined), the TGI in the test with SF-295 CNS, with SK-MEL-28 melanoma, in the test with TK-10 renal, in the test on LOX IMVI melanoma, in the test with ACHN renal and with 786-0 renal was above 100 µM in each case. Moreover, the TGI in the test with HOP-62 NSCLC and in the test with SF-268 CNS was above 100 µM in each case.

With `COc1ccc(/C=[N+](\[O-])[C@H](COCc2ccccc2)c2ccccc2)cc1`, the TGI with SF-295 CNS, with SK-MEL-28 melanoma, in the test on TK-10 renal, in the test with LOX IMVI melanoma, in the test on ACHN renal and in the test with 786-0 renal was above 100 µM each time. Moreover, the TGI in the test on HOP-62 NSCLC, with RPMI-8226 leukemia and in the test with SF-268 CNS was above 100 µM in each case.

With `c1cncc(C2c3[nH]c4ccccc4c3CCN2CCN2CCCCC2)c1` (centres undefined), the TGI in the test on SF-295 CNS, with SK-MEL-28 melanoma, in the test on TK-10 renal, in the test on LOX IMVI melanoma, in the test with ACHN renal and in the test with 786-0 renal was above 100 µM in each case. The TGI in the test on HOP-62 NSCLC, in the test on RPMI-8226 leukemia and in the test on SF-268 CNS was above 100 µM each time.

On to `COc1cccc2c(=O)c3c(sc12)c(NCCCN)nc1ccccc13`, for which the GI50 in the test with SF-295 CNS was 1.77 µM; in the test on SK-MEL-28 melanoma, 1.87 µM; in the test on TK-10 renal it was 1.99 µM; with LOX IMVI melanoma, 1.3 µM; in the test on ACHN renal, 1.32 µM; in the test with 786-0 renal it was 1.65 µM. Moreover, the GI50 was 2.11 µM with RPMI-8226 leukemia and 1.48 µM in the test on SF-268 CNS. The TGI in the test on SF-295 CNS amounted to 3.25 µM; in the test with SK-MEL-28 melanoma it was 3.36 µM; with TK-10 renal it was 3.63 µM; with LOX IMVI melanoma it was 2.68 µM; in the test on ACHN renal it was 2.59 µM; in the test with 786-0 renal, 3.14 µM. The TGI in the test with RPMI-8226 leukemia turned out to be 4.92 µM; in the test on SF-268 CNS, 3.32 µM.

Take `COc1ccc2c(C3(O)CCNCC3)c[nH]c2c1`: the TGI with SF-295 CNS, in the test with SK-MEL-28 melanoma, with TK-10 renal, in the test with LOX IMVI melanoma, in the test with ACHN renal and in the test with 786-0 renal was above 100 µM each time. For the same molecule, the TGI in the test on HOP-62 NSCLC, in the test on RPMI-8226 leukemia and in the test on SF-268 CNS was above 100 µM throughout.

Turning to `CCCc1ccc(N=Cc2cc(OC)c(OC)c(OC)c2)cc1`, the TGI with SF-295 CNS, in the test with SK-MEL-28 melanoma, in the test on TK-10 renal, in the test on LOX IMVI melanoma, with ACHN renal and in the test with 786-0 renal was above 100 µM in each case. Further, the TGI in the test on HOP-62 NSCLC was above 100 µM; in the test with RPMI-8226 leukemia, above 65.8 µM; in the test on SF-268 CNS, above 100 µM.

Consider `COC(=O)c1ccc(OCc2ccc3oc(=O)c(-c4ccccc4)nc3c2)cc1`, for which the TGI in the test with SF-295 CNS is above 100 µM; in the test on SK-MEL-28 melanoma it was above 100 µM; in the test with TK-10 renal, above 100 µM; with LOX IMVI melanoma, above 100 µM; in the test with ACHN renal, above 100 µM; in the test with 786-0 renal, 66.5 µM. Moreover, the TGI with HOP-62 NSCLC, with RPMI-8226 leukemia and in the test with SF-268 CNS was above 100 µM throughout.

Consider `O=C(c1ccco1)N(C(=S)N1CCN(c2ccccc2)CC1)c1ccccc1`, for which the TGI with SF-295 CNS, in the test on SK-MEL-28 melanoma, in the test with TK-10 renal, in the test with LOX IMVI melanoma, in the test with ACHN renal and in the test on 786-0 renal was above 100 µM each time. The TGI in the test on HOP-62 NSCLC, in the test on RPMI-8226 leukemia and with SF-268 CNS was above 100 µM each time.

Turning to `CCOC(=O)C(=O)Nc1c(C)cccc1CC`, the TGI with SF-295 CNS, with SK-MEL-28 melanoma, in the test on TK-10 renal, in the test on LOX IMVI melanoma, in the test on ACHN renal and with 786-0 renal was above 100 µM throughout. In addition, the TGI in the test on HOP-62 NSCLC, with RPMI-8226 leukemia and in the test on SF-268 CNS was above 100 µM in each case.

For the molecule `Cc1c(C(=O)CC(=O)C(=O)NC2C3CC4CC(C3)CC2C4)[n+](=O)c2ccccc2n1[O-]` (centres undefined), the TGI in the test on SF-295 CNS, with SK-MEL-28 melanoma, with TK-10 renal, with LOX IMVI melanoma, in the test on ACHN renal and in the test with 786-0 renal was above 100 µM throughout. For the same molecule, the TGI in the test on HOP-62 NSCLC, in the test with RPMI-8226 leukemia and with SF-268 CNS was above 100 µM each time.

As for `CC1(C)OC2C(=O)OC(COCc3ccccc3)C2O1` (centres undefined), the TGI in the test with SF-295 CNS, with SK-MEL-28 melanoma, in the test with TK-10 renal, in the test on LOX IMVI melanoma, in the test on ACHN renal and with 786-0 renal was above 100 µM each time. For the same molecule, the TGI in the test on HOP-62 NSCLC, in the test on RPMI-8226 leukemia and in the test with SF-268 CNS was above 100 µM throughout.

As for `CCOC(=O)c1c2ccc(/C=C/C(=O)OC)ccc-2c(C(=O)OCC)c1N`, the TGI with SF-295 CNS was above 100 µM; with SK-MEL-28 melanoma it was 8.42 µM; in the test with TK-10 renal it was above 100 µM; with LOX IMVI melanoma, above 100 µM; in the test on ACHN renal, above 100 µM; in the test with 786-0 renal it was above 100 µM. The molecule further yielded a TGI with SF-268 CNS of 9.68 µM.
